Earlier results as cited in patent US10640830B2, “Drug selection for non-small cell lung cancer therapy” (NESTEC S.A., priority 2013, dated 2020).
Each block holds one compound with its values, some of them ahead of it.

How the values were obtained:
[1] = in vivo
human xenograft models = settings: dosed orally in human xenograft models
[2] = early Phase I evaluation

oral bioavailability [1]: good oral bioavailability
Compound: COc1cc2c(Oc3ccc(NC(=O)C4(C(=O)Nc5ccc(F)cc5)CC4)cc3F)ccnc2cc1OCCCN1CCOCC1 [GSK 1363089/XL880]
CYP450 substrate / inhibitor / inducer (CYP450): CYP450 substrate, but not an inhibitor or inducer

Compound: Cn1cc(-c2ccc3nnc(Sc4ccc5ncccc5c4)n3n2)cn1 [SGX523]
antitumor activity (human xenograft models): potent antitumor activity
toxicity (human xenograft models): no overt toxicity

Compound: CN(C[C@@H]1COCCO1)S(=O)(=O)Nc1ccc2ccc3ncc(-c4cnn(C)c4)cc3c(=O)c2c1 [MK-2461]
tolerability [2]: well tolerated
